Values of other authors as cited in patent publication US20100130442A1, “Lung Injury Treatment” (priority 2007, published 2010).

Tests used:
[1] = system: lung injury induced by intratracheal LPS in C57BL/6 mice; settings: spontaneously ventilating C57BL/6 mice
[2] = system: mechanical ventilation induced lung injury; settings: in vivo

## CCCCCCCCCCCCC/C=C/[C@@H](O)[C@@H](N)COP(=O)(O)O [Sphingosine-1-Phosphate]
[1]
  lung injury induced by intratracheal LPS: attenuates
[2]
  mechanical ventilation induced lung injury: blocked
